{
  "source": "patent US12514830B2",
  "about": "“Idebenone for the treatment of Acute Respiratory Distress Syndrome (ARDS) in patients diagnosed with a coronavirus infection” (BEMIDO SA, priority 2020, dated 2026)",
  "origin": "cited, not measured here",
  "system": "patients with Duchenne muscular dystrophy (DMD)",
  "details": "long-term treatment, for up to 6 years, real-world setting",
  "data": [
    {"compound": "COC1=C(OC)C(=O)C(CCCCCCCCCCO)=C(C)C1=O", "note": "[idebenone, 2-(10-hydroxydecyl)-5,6-dimethoxy-3-methyl-cyclohexa-2,5-diene-1,4-dione]", "values": [
      {"measurement": "rate of respiratory function loss", "result": "consistently reduced the rate of respiratory function loss"}
    ]}
  ]
}
